According to US8975398B2, “NAMPT inhibitors” (AbbVie Inc., priority 2012, dated 2015):
pIC50: −log10 of the molar value.

Assays:
PC3 cells = test: NAMPT Cell Proliferation Assay (Cell Titer Glo; also performed in the presence of 0.3 mM nicotinamide mononucleotide); assay type: cell-based; details: 5 days incubation, cell viability by Cell Titer Glo
Protocol: NAMPT Cell Proliferation Assay
PC3 cells were seeded in 96-well black plates (Corning #3904) at 500 cells/well in 90 μl of RPMI media containing 10% heat-inactivated FBS and incubated overnight at 37° C. and 5% CO2 to allow cells to attach to wells. The following day, test compounds were serially diluted in neat DMSO to 1000× final concentrations prior to dilution with RPMI media to 10× and 1% DMSO. Ten μL of the 10× compounds were then transferred to wells containing cells to produce a dose response of 10-fold dilutions from 10 μM to 1×10^−5 μM. Cells were incubated for 5 days at 37° C. and 5% CO2, then cell viability was measured using Cell Titer Glo reagent (Promega #G7571). Percent inhibition values were calculated and fitted to a sigmoidal dose response curves using Assay Explorer software to determine IC50s.

[1] = target: NAMPT (human, recombinant, C-terminally His-tagged) (Homo sapiens, UniProt P43490); test: Time-Resolved Fluorescence Resonance Energy Transfer (TR-FRET) Binding Assay of NAMPT; details: 6.8 nM NAMPT, 200 nM probe, equilibrated 3 hours, absence of substrates
Sequence of NAMPT (human, recombinant, C-terminally His-tagged) (P43490 whole entry): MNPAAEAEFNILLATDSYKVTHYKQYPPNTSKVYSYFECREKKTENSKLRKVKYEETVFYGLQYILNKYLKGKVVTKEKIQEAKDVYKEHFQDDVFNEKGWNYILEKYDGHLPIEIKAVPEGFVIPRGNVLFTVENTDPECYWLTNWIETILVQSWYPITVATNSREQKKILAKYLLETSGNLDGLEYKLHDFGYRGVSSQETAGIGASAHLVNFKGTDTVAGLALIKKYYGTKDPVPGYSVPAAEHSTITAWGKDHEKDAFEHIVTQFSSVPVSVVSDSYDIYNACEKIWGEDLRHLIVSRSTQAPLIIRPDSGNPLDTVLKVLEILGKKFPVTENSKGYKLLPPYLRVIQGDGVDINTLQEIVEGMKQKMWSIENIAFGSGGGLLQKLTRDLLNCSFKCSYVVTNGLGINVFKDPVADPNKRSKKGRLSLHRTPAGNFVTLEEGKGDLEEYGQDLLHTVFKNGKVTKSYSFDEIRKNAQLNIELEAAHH
Summary of the method: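 Probe displacement measured by TR-FRET (Ex 337 nm; 520/495 nm ratio) after 3 h room-temperature equilibration of compound with 6.8 nM His-tagged human NAMPT, 1 nM Tb-anti-His antibody and 200 nM Oregon Green 488 nicotinamide-site probe, pH 7.5 HEPES buffer, 2% DMSO. Control-normalized data fit four-parameter logistic for IC50.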

NAMPT = NAMPT (Homo sapiens, UniProt P43490); test: Time-Resolved Fluorescence Resonance Energy Transfer (TR-FRET) Binding Assay of NAMPT with PRPP; details: 2 nM NAMPT, 2 nM probe, 200 uM PRPP and 2.5 mM ATP, equilibrated 16 hours
Sequence of NAMPT (P43490 whole entry): as above
Summary of the method: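 Binding measured by TR-FRET after a 16-hour equilibration meant to permit enzymatic compound modification. Substrates present at 200 uM PRPP and 2.5 mM ATP, with 2 nM enzyme, 2 nM probe, 1 nM Tb-anti-His antibody and 2% DMSO final.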

pIC50 (PC3 cells; Homo sapiens, PC-3, 120 h)	Compound	further results
8.23	O=C(Nc1ccc(C2CCN(C(=O)c3cccc(F)c3)CC2)c(F)c1)C1CN(c2cccnn2)C1 [Example 879, N-{3-fluoro-4-[1-(3-fluorobenzoyl)piperidin-4-yl]phenyl}-1-(pyridazin-3-yl)azetidine-3-carboxamide]	–
8.63	CCCC(=O)N1CCC(Cc2ccc(NC(=O)C3CN(c4cccnn4)C3)cc2)CC1 [Example 959, N-{4-[(1-butanoylpiperidin-4-yl)methyl]phenyl}-1-(pyridazin-3-yl)azetidine-3-carboxamide]	–
6.22	O=C(NCC1CCOC1)c1ccc(NC(=O)C2CN(c3cccnn3)C2)cc1 (stereo not shown) [Example 989, 1-(pyridazin-3-yl)-N-{4-[(tetrahydrofuran-3-ylmethyl)carbamoyl]phenyl}azetidine-3-carboxamide]	–
8.12	COCC(=O)N1CCC(Cc2ccc(NC(=O)C3CN(c4cccnn4)C3)cc2)CC1 [Example 943, N-(4-{[1-(methoxyacetyl)piperidin-4-yl]methyl}phenyl)-1-(pyridazin-3-yl)azetidine-3-carboxamide]	–
6.09	CC1(NC(=O)c2ccc(NC(=O)C3CN(c4cccnn4)C3)cc2)CC1 [Example 993, N-{4-[(1-methylcyclopropyl)carbamoyl]phenyl}-1-(pyridazin-3-yl)azetidine-3-carboxamide]	–
8.56	O=C(Nc1ccc(CC2CCN(C(=O)c3nccs3)CC2)cc1)C1CN(c2cccnn2)C1 [Example 951, 1-(pyridazin-3-yl)-N-(4-{[1-(1,3-thiazol-2-ylcarbonyl)piperidin-4-yl]methyl}phenyl)azetidine-3-carboxamide]	–
8.48	O=C(Nc1ccc(CC2CCN(C(=O)c3ccno3)CC2)cc1)C1CN(c2cccnn2)C1 [Example 953, N-(4-{[1-(1,2-oxazol-5-ylcarbonyl)piperidin-4-yl]methyl}phenyl)-1-(pyridazin-3-yl)azetidine-3-carboxamide]	–
6.67	CC1(C(=O)N2CCC(c3ccc(C(=O)N[C@H]4CCN(c5cccnn5)C4)s3)CC2)CC1 [Example 1016, 5-{1-[(1-methylcyclopropyl)carbonyl]piperidin-4-yl}-N-[(3S)-1-(pyridazin-3-yl)pyrrolidin-3-yl]thiophene-2-carboxamide]	–
8.23	Cn1cccc1C(=O)N1CCC(Cc2ccc(NC(=O)C3CN(c4cccnn4)C3)cc2)CC1 [Example 949, N-[4-({1-[(1-methyl-1H-pyrrol-2-yl)carbonyl]piperidin-4-yl}methyl)phenyl]-1-(pyridazin-3-yl)azetidine-3-carboxamide]	–
8.61	CCCC(C)C(=O)N1CCC(Cc2ccc(NC(=O)C3CN(c4cccnn4)C3)cc2)CC1 (stereo not shown) [Example 934, N-(4-{[1-(2-methylpentanoyl)piperidin-4-yl]methyl}phenyl)-1-(pyridazin-3-yl)azetidine-3-carboxamide]	–
8.06	O=C(Nc1ccc(CC2CCN(C(=O)c3ccn[nH]3)CC2)cc1)C1CN(c2cccnn2)C1 [Example 938, N-(4-{[1-(1H-pyrazol-5-ylcarbonyl)piperidin-4-yl]methyl}phenyl)-1-(pyridazin-3-yl)azetidine-3-carboxamide]	–
8.26	CC(C)(C)CNC(=O)c1ccc(NC(=O)C2CN(c3cccnn3)C2)cc1 [Example 973, N-{4-[(2,2-dimethylpropyl)carbamoyl]phenyl}-1-(pyridazin-3-yl)azetidine-3-carboxamide]	–
8.49	CC(C)CC(=O)N1CCC(Cc2ccc(NC(=O)C3CN(c4cccnn4)C3)cc2)CC1 [Example 966, N-(4-{[1-(3-methylbutanoyl)piperidin-4-yl]methyl}phenyl)-1-(pyridazin-3-yl)azetidine-3-carboxamide]	–
8.62	O=C(Nc1ccc(CC2CCN(C(=O)CC3CCCC3)CC2)cc1)C1CN(c2cccnn2)C1 [Example 962, N-(4-{[1-(cyclopentylacetyl)piperidin-4-yl]methyl}phenyl)-1-(pyridazin-3-yl)azetidine-3-carboxamide]	–
7.18	CCOC(=O)c1cc(-c2ccc(NC(=O)C3CN(c4cccnn4)C3)cc2)n(-c2ccccc2)n1 [Example 913, ethyl 1-phenyl-5-[4-({[1-(pyridazin-3-yl)azetidin-3-yl]carbonyl}amino)phenyl]-1H-pyrazole-3-carboxylate]	–
9.40	CCC(CC)C(=O)N1CCC(Cc2ccc(NC(=O)C3CN(c4cccnn4)C3)cc2)CC1 [Example 899, N-(4-{[1-(2-ethylbutanoyl)piperidin-4-yl]methyl}phenyl)-1-(pyridazin-3-yl)azetidine-3-carboxamide]	–

pIC50 (PC3 cells; Homo sapiens, PC-3, 120 h)	Compound	further results
6.12	O=C(N[C@H]1CCN(c2cccnn2)C1)c1ccc(C2CCN(C(=O)CC(F)(F)F)CC2)s1 [Example 1017, N-[(3S)-1-(pyridazin-3-yl)pyrrolidin-3-yl]-5-[1-(3,3,3-trifluoropropanoyl)piperidin-4-yl]thiophene-2-carboxamide]	–
8.20	O=C(Nc1ccc(CC2CCN(C(=O)c3ccccn3)CC2)cc1)C1CN(c2cccnn2)C1 [Example 954, 1-(pyridazin-3-yl)-N-(4-{[1-(pyridin-2-ylcarbonyl)piperidin-4-yl]methyl}phenyl)azetidine-3-carboxamide]	–
6.15	O=C(N[C@H]1CCN(c2cccnn2)C1)c1ccc(C2CCN(C(=O)CC3CC3)CC2)s1 [Example 1018, 5-[1-(cyclopropylacetyl)piperidin-4-yl]-N-[(3S)-1-(pyridazin-3-yl)pyrrolidin-3-yl]thiophene-2-carboxamide]	–
6.19	Cc1ccc(N2CC(C(=O)Nc3ccc(O[C@@H]4CCN(C(=O)C(C)C)C4)cc3)C2)nn1 [Example 916, N-(4-{[(3R)-1-(2-methylpropanoyl)pyrrolidin-3-yl]oxy}phenyl)-1-(6-methylpyridazin-3-yl)azetidine-3-carboxamide]	–
7.14	CCCCNC(=O)c1ccc(NC(=O)C2CN(c3cccnn3)C2)cc1 [Example 979, N-[4-(butylcarbamoyl)phenyl]-1-(pyridazin-3-yl)azetidine-3-carboxamide]	–
–	Cc1ccccc1C(=O)N1CC(c2ccc(NC(=O)[C@H]3CCN(c4cccnn4)C3)cc2)C1 [Example 791]	pIC50 (PC3 cells): 8.13
8.43	O=C(Nc1ccc(CC2CCN(C(=O)CC(F)(F)F)CC2)cc1)C1CN(c2cccnn2)C1 [Example 968, 1-(pyridazin-3-yl)-N-(4-{[1-(3,3,3-trifluoropropanoyl)piperidin-4-yl]methyl}phenyl)azetidine-3-carboxamide]	–
8.41	O=C(Nc1ccc(CC2CCN(C(=O)c3cncs3)CC2)cc1)C1CN(c2cccnn2)C1 [Example 927, 1-(pyridazin-3-yl)-N-(4-{[1-(1,3-thiazol-5-ylcarbonyl)piperidin-4-yl]methyl}phenyl)azetidine-3-carboxamide]	–
6.11	C=CCNC(=O)c1ccc(NC(=O)C2CN(c3cccnn3)C2)cc1 [Example 1012, N-[4-(prop-2-en-1-ylcarbamoyl)phenyl]-1-(pyridazin-3-yl)azetidine-3-carboxamide]	–
8.66	CSCCC(=O)N1CCC(Cc2ccc(NC(=O)C3CN(c4cccnn4)C3)cc2)CC1 [Example 936, N-[4-({1-[3-(methylsulfanyl)propanoyl]piperidin-4-yl}methyl)phenyl]-1-(pyridazin-3-yl)azetidine-3-carboxamide]	–
7.91	O=C(NCC1CCC1)c1ccc(NC(=O)C2CN(c3cccnn3)C2)cc1 [Example 977, N-{4-[(cyclobutylmethyl)carbamoyl]phenyl}-1-(pyridazin-3-yl)azetidine-3-carboxamide]	–
8.54	Cc1ccnnc1N1CC[C@H](C(=O)Nc2ccc(C3CCN(C(=O)c4ccccc4)CC3)cc2)C1 [Example 921, (3S)—N-[4-(1-benzoylpiperidin-4-yl)phenyl]-1-(4-methylpyridazin-3-yl)pyrrolidine-3-carboxamide]	–
8.39	CC(C)(C)C(=O)N1CCC(O)(c2ccc(NC(=O)C3CN(c4cccnn4)C3)cc2)CC1 [Example 890, N-{4-[1-(2,2-dimethylpropanoyl)-4-hydroxypiperidin-4-yl]phenyl}-1-(pyridazin-3-yl)azetidine-3-carboxamide]	–
8.59	O=C(Nc1ccc(CC2CCN(C(=O)C3CCCC3)CC2)cc1)C1CN(c2cccnn2)C1 [Example 928, N-(4-{[1-(cyclopentylcarbonyl)piperidin-4-yl]methyl}phenyl)-1-(pyridazin-3-yl)azetidine-3-carboxamide]	–
–	Cc1ncccc1N1CC(C(=O)Nc2ccc(C3CCN(C(=O)[C@@H]4CCC(=O)N4)CC3)cc2)C1 [Example 174, 1-(2-methylpyridin-3-yl)-N-{4-[1-(5-oxo-L-prolyl)piperidin-4-yl]phenyl}azetidine-3-carboxamide]	pIC50 [1]: 5.68; pIC50 (NAMPT): 6.80
–	O=C(Nc1ccc(C2CCN(C(=O)[C@@H]3CCCO3)CC2)cc1)C1CN(c2cccnc2)C1 [Example 10, 1-(pyridin-3-yl)-N-(4-{1-[(2S)-tetrahydrofuran-2-ylcarbonyl]piperidin-4-yl}phenyl)azetidine-3-carboxamide]	pIC50 [1]: 7.46; pIC50 (NAMPT): 9.29
